Results taken from PubChem BioAssay AID504726 (Broad Institute, 2011).
Activity calls are given as the source filed them.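 The calls were made as follows: active = fitted half-maximal concentration for a cytotoxic signal drop no higher than ten times the top valid dose tested; inconclusive = flat curve between -70 and -30 percent, or an unreliable fit; inactive = flat within 30 percent, signal rise, or potency beyond limit.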

Assay: HeLa cell cytotoxicity, dose response, cytotoxicity control, 24 h, cherry-picked samples (AID 504726);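 also: 0% = DMSO neutral controls and -100% = mitoxantrone positive controls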
Details: HeLa viability, CellTiter-Glo ATP luminescence, 24 h; at 35 µM (top of the series)

Compound | activity change, negative = cytotoxicity
CN(CC(=O)Nc1ccc(N2CCOCC2)cc1)C(=O)CSc1ccc(Br)cc1 | 0.641% (inactive)
CCOC(=O)c1sc(NC(=O)CSC(=S)N2CCN(C)CC2)nc1C | -7.44% (inactive)
CCCC1(C2CCCC2)NC(=O)NC1=O (stereo not given) | 0.78% (inactive)
O=C(Cn1nc(Cc2ccncc2)c2ccccc2c1=O)N1CCN(C(=O)c2ccco2)CC1 | -4.22% (inactive)
Cc1cc(C)nc(SCC(=O)N/N=C/c2cc(C)n(-c3ccccc3C)c2C)n1 | -7.55% (inactive)
CN(C)/C=C1\C=C2C(=O)c3ccccc3N2C1=O | -8.99% (inactive)
O=C(CN1C(=O)NC2(CCCC2)C1=O)Nc1ccccc1-c1ccccc1 | -3.7% (inactive)
CCCCn1nc(CC(=O)O)c2ccccc2c1=O | -0.208% (inactive)
COc1ccc(NC(=O)CO/N=C2/CCCc3nonc32)c(OC)c1 | -3.9% (inactive)
Cc1cc(OCC(=O)OC(C)(C)C)c2c3c(c(=O)oc2c1)CCC3 | 0.477% (inactive)
CCC(Sc1ncccc1C(=O)O)C(=O)N1CCCC1 (stereo not given) | 3.53% (inactive)
O=C(NCc1cccnc1)C(=O)C1C(=O)Nc2ccccc21 (stereo not given) | -6.53% (inactive)
CCSc1nnc(Cc2cc(=O)[nH]c(=O)[nH]2)n1-c1ccc(F)cc1 | -15.6% (inactive)
Oc1ccc(-c2nc3ccccn3c2NCc2ccco2)cc1 | -4.28% (inactive)
CN(C)CCCNC(=O)c1ccccc1Oc1ccccc1 | -6.34% (inactive)
O=C(O)C1C2C=CC(CC2)C1C(=O)O (stereo not given) | -1.75% (inactive)
Cc1ccc(S(=O)(=O)/N=C/c2ccc(N(C)C)cc2)cc1 | 2.12% (inactive)
Cc1cccc(COc2ccc(/C=N/NC(=O)c3nnn(-c4nonc4N)c3COc3ccc(F)cc3)cc2)c1 | -4.08% (inactive)
O=C(CCN1C(=O)/C(=C\c2ccco2)SC1=S)Nc1ccc(C(=O)O)c(O)c1 | 4.66% (inactive)
Cc1ccc(C)c(OCC(=O)N(Cc2nnc(-c3ccccc3Cl)o2)C2CC2)c1 | -0.736% (inactive)
COc1ccc(Cn2nnc3c(=O)[nH]c(C4CCCN(C(=O)c5ccccc5)C4)nc32)cc1 (stereo not given) | -5.25% (inactive)
CC1Cc2ccccc2N1C(=O)CCS(=O)(=O)c1cccs1 (stereo not given) | -6.91% (inactive)

Compound | activity change, negative = cytotoxicity
Cn1c(=O)c(NC2CCCCC2)c2c3c(cccc31)C(=O)c1ccccc1-2 | -11.9% (inactive)
O=C(CN(Cc1ccccc1F)C(=O)c1csnn1)NCc1ccc2c(c1)OCO2 | -9.28% (inactive)
CC(Oc1ccccc1)c1nnc(N)s1 (stereo not given) | -3.11% (inactive)
CCCc1cc(C(=O)Nc2ccc(C(=O)c3ccc(C)cc3)cc2)n(C)n1 | 2.14% (inactive)
O=C(c1ccccc1)c1ccc(O)cc1O | -20.5% (inactive)
CC(C)CC(=O)Nc1nnc(CSCc2ccc(F)cc2)s1 | -9.25% (inactive)
CS(=O)(=O)Nc1nc2n(n1)C(c1ccccc1)C=C(c1ccc(Br)cc1)N2 (stereo not given) | -2.61% (inactive)
COc1ccc(-c2csc(NC(=O)CSc3nc(C)nc4sc(C(=O)O)c(C)c34)n2)cc1 | -1.52% (inactive)
COc1cc(CN2CC(=O)N(c3cc(Cl)ccc3C)C2=S)cc(OC)c1OC | -7.61% (inactive)
COc1ccc(NS(=O)(=O)c2ccc(C)c(C(=O)N(C)Cc3ccc(OC)cc3OC)c2)cc1 | -7.58% (inactive)
CCOC(=O)C1=C(COC(=O)c2ccc([N+](=O)[O-])s2)NC(=O)NC1C (stereo not given) | -1% (inactive)
CN(C)c1ccc(O)c2c1CC1CC3[C@@H](N(C)C)C(=O)C(C(N)=O)=C(O)[C@]3(O)C(=O)C1=C2O (stereo not given in full) | -1.73% (inactive)
O=C(C1CCCO1)N1CCN(c2ncccn2)CC1 (stereo not given) | -0.396% (inactive)
CCCCN(C(=O)C(C)Oc1ccc(Br)cc1)c1c(N)n(CC(C)C)c(=O)[nH]c1=O (stereo not given) | 3.21% (inactive)
O=c1c2c(nc3cc(-c4ccc(F)cc4)[nH]n13)CCC2 | -13.7% (inactive)
NC(=S)NN=Cc1ccc(-c2ccc(S(=O)(=O)Nc3ncccn3)cc2)o1 | -14.8% (inactive)
CC(C)N(Cc1ccccc1)C(=O)Cn1c(=O)cnc2ccccc21 | 0.817% (inactive)
Cc1nnc(NC(=O)CN2C(=O)NC3(CCCC3)C2=O)s1 | -0.18% (inactive)
O=C(O)c1cccc(-n2cccc2/C=C2/NC(=O)N(c3ccc(Cl)cc3)C2=O)c1 | 0.035% (inactive)
Nc1ccc2c3c(cccc13)C(=O)N(c1ccccc1)C2=O | 19% (inactive)
COC(=O)c1ccccc1NC(=O)CCS(=O)(=O)c1ccc(Br)cc1 | 10.1% (inactive)
O=C(NCCCO)c1ccc2nc(-c3ccco3)c(-c3ccco3)nc2c1 | -12.3% (inactive)

Compound | activity change, negative = cytotoxicity
N#CCCN(CCC#N)C(=O)C1c2ccccc2Oc2ccccc21 | -3.39% (inactive)
Brc1c(CSc2nncc3ccccc23)nc2ccccn12 | -1.12% (inactive)
Cc1cc2nc3c(=O)[nH]c(=S)[nH]c3nc2cc1NC(=O)C(F)(F)F | -3.95% (inactive)
C=CCN1C(=O)/C(=c2\sc3nc(=O)c(Cc4ccccc4Cl)nn3c2=O)c2ccccc21 | -9.87% (inactive)
O=C(O)c1[nH]c2ccccc2c1C(c1cc(Cl)cc([N+](=O)[O-])c1O)c1c(C(=O)O)[nH]c2ccccc12 | -6.4% (inactive)
Cc1ccc(N2CC(C(=O)Nc3nnc(SCC(=O)Nc4nc(C)cs4)s3)CC2=O)cc1 (stereo not given) | -3.6% (inactive)
Cc1ccc2c(c1)nnn2C1CCN(C(=O)c2cccs2)CC1 | -7.39% (inactive)
CCN(C(=O)COC(=O)c1nc2nc(C)cc(C)n2n1)C1CCCCC1 | 5.26% (inactive)
Cc1cc(C)n(CC(=O)NNC(=O)CC(C)c2ccccc2)n1 (stereo not given) | -9.44% (inactive)
O=C(Nc1cc(Cl)ccc1-n1cncn1)c1cccs1 | -6.29% (inactive)
CCN(CC(=O)Nc1ccc(OC)cc1)C(=O)c1cc([N+](=O)[O-])ccc1N1CCOCC1 | -3.5% (inactive)
CCc1nnc(NC(=O)c2cccc(S(=O)(=O)N(C)c3ccccc3)c2)s1 | -7.23% (inactive)
NC(=S)N/N=C/c1cn(CCC(=O)O)nc1-c1cccc(Br)c1 | -7.24% (inactive)
NNC(=S)Nc1ccc(S(=O)(=O)N2CCOCC2)cc1 | 0.037% (inactive)
O=C(CCN1C(=O)/C(=C/c2ccco2)SC1=S)Nc1ccc(C(=O)O)c(O)c1 | 2.73% (inactive)
O=S(=O)(O)c1cccc2cccc(Nc3ccccc3)c12 | -4.31% (inactive)
Cc1sc2nnn(CC(=O)N3CCN(C(=O)c4ccco4)CC3)c(=O)c2c1C | -4.76% (inactive)
O=C1CCCC2=C1C(c1ccc(O)c(O)c1)Nc1ccc3ncccc3c12 (stereo not given) | -1.08% (inactive)
CCOC(=O)c1c(/N=C/c2c(O)n(-c3cccc(C)c3)c(=O)[nH]c2=O)sc2c1CCCC2 | -22.9% (inactive)
COc1ccccc1CNC(=O)C(=O)NCC1CCCN1S(=O)(=O)c1cccs1 (stereo not given) | -4.86% (inactive)
CN(C)c1ccc(/C=N/N(CCO)C2=NS(=O)(=O)c3ccccc32)cc1 | -6.62% (inactive)
CC(OC(=O)c1cn(C)c2ccccc12)C(=O)N1CCCC1 (stereo not given) | -9.43% (inactive)

Compound | activity change, negative = cytotoxicity
COc1cc(C(=O)O)cc(NC(=O)c2ccco2)c1OC | -8.57% (inactive)
COc1ccc(CCNC(=O)CNC(=O)Cn2ccc3ccccc3c2=O)cc1OC | 2.19% (inactive)
Clc1ccc(C2=CC(c3ccco3)n3ncnc3N2)cc1 (stereo not given) | -16.1% (inactive)
COc1ccc(C)cc1NC(=O)C(OC(=O)c1cnccn1)c1ccccc1 (stereo not given) | -9.07% (inactive)
Cn1c2ccccc2c2cnn(CC(=O)Nc3cccc(F)c3)c(=O)c21 | -9.52% (inactive)
O=C(NCCN1CCN(C(=O)c2cccs2)CC1)c1cccs1 | -5.34% (inactive)
Nc1cccc2cc(S(=O)(=O)O)ccc12 | 5.33% (inactive)
O=C(O)/C=C/c1ccccc1Oc1ccccc1 | -8.62% (inactive)
COc1cc(-c2ccc(Nc3ccccc3C(=O)O)c(OC)c2)ccc1Nc1ccccc1C(=O)O | -14.8% (inactive)
O=C(O)CC(C(=O)O)N1C(=O)/C(=C/C=C/c2ccco2)SC1=S (stereo not given) | -8.39% (inactive)
CCC1(c2ccccc2)NC(=O)N(CC(=O)Nc2ccc(OC)nc2)C1=O (stereo not given) | -1.91% (inactive)
CCOC(=O)C1CCCN(c2ccc([N+](=O)[O-])c3nonc23)C1 (stereo not given) | -8.2% (inactive)
Cc1cc(-c2nnc(SCC(=O)Nc3ccccc3)n2C)no1 | -3.15% (inactive)
CC1CCCN(C(=O)C(=O)c2cn(CC(=O)N3CCCCCC3)c3ccccc23)C1 (stereo not given) | -6.83% (inactive)
Cc1ccc(CSc2ncnc3onc(C)c23)cc1 | -13.2% (inactive)
O=C(Cn1ncc(N2CCCC2)c(Cl)c1=O)c1ccc(Cl)cc1 | 7.35% (inactive)
CC[C@H](C)[C@H](NC(N)=O)C(=O)Nc1ccc(NC(C)=O)cc1 | 6.72% (inactive)
C=CCn1c(C)cc(-c2csc(NC(=O)CCc3nc4ccccc4c(=O)[nH]3)n2)c1C | -6.5% (inactive)
Cc1ccc(NC(=S)N/C(=N/S(=O)(=O)c2ccccc2)c2ccccc2)cc1 | 6.71% (inactive)
